For test [1] the following is noted: in vivo; cited from earlier work.
Test [2] concerns postsynaptic DA receptors. Kind of test: Antagonism of the reserpine plus α-methyl-para-tyrosine-induced immobility (neuroleptic syndrome) in rats; motor activity. The following applies: for Motor activity: reserpine 10 mg/kg + α-methyl-para-tyrosine 250 mg/kg i.p., means ± s.e.m.; for motor response / postsynaptic DA-receptor stimulatory effects: comparative study, Table II, s.c.

The test system of another test is DA autoreceptors. Kind of test: Spontaneous locomotor activity in non-pretreated rats. It is filed as in vivo, rat. The following applies: non-pretreated rats; for effect on locomotor activity, in words: s.c. The procedure:
Untreated animals exposed to a new environment display an initial high motor activity which then gradually declines over a period of time. Administration of DA-receptor agonists (e.g. apomorphine) in doses where preferential autoreceptor stimulation is likely to occur, causes a depression of the spontaneous motility mentioned above, considered to be due to the DA autoreceptor-medicated attenuation of central DA transmission.
Rats (150-300 g) were injected subcutaneously with compound 2,5-OH-DPAT or apomorphine and after 5 minutes they were individually placed in motility boxes ("M/P 40 Fc Electronic Motility Meter". Motron Products, Stockholm) and the motor activity (0-30 min) was quantified. […] These findings are in congruence with the results obtained with the selective DA-autoreceptor agonist 3-PPP [S. Hjorth t al., Life Sciences, 28, 1225 (1981)] but in sharp contrast to the results obtained with 5-OH-DPAT and apomorphine (Table III).
Non-pretreated rats were given compound -2 (0.0625-16.0 mg/kg),
5OH--2-(di-n-propylamino) tetralin (5OH--DPAT; 0.0125-0.05 mg/kg,
apomorphine (0.1-1.0 mg/kg) or saline subcutaneously. Five minutes later
they were placed individually into motility meters and the locomotor

Test [3] relates to central DA-receptor (pre- and/or postsynaptic). The following applies: reserpine-pretreated rats, s.c., cited from earlier work; for Dopa-accumulation; ED50, Limbic (taken from Hacksell et al., J. Med. Chem. 22, 1469 (1979)): limbic forebrain.
Another test concerns autoreceptor. The following applies: low doses; cited from earlier work.
[4] abbreviates: reserpine and α-methyl-para-tyrosine pretreated rats.

Data on three compounds can be found in US4876284A, “1-alkyl-2-aminotetralin derivatives” (Per Arvid Emil Carlsson, priority 1981, dated 1989).

Structures are written as SMILES.

As for `CN(C)C1CCc2ccc(O)cc2C1(C)C` (stereo not shown) [1,1-Dimethyl-2-(N,N-dimethylamino)-7-hydroxytetralin], the “actions stated in CA 79: 146294b” value in test [1] was “analgesic and intestinal movement accelerating actions”.
Turning to `CN1CCc2cccc3c2[C@H]1Cc1ccc(O)c(O)c1-3` [Apomorphine], the Motor activity in test [2] (1 mg/kg s.c.) turned out to be 517 ± 56 counts 0-60 min. In test [2], the “motor response / postsynaptic DA-receptor stimulatory effects” value is given as “strong central postsynaptic DA-receptor stimulatory effects”. Moreover, in test [2] (setting [4]), the “antagonism of the reserpine-induced syndrome / behaviour elicited” value is “pronounced stereotyped and hyperactive behaviour”. The Locomotor activity with DA autoreceptors (0.1 mg/kg s.c.) stood at 134 ± 9 counts 0.30 min. Moreover, the Locomotor activity in the test on DA autoreceptors (1.0 mg/kg s.c.) is 439 ± 67 counts 0.30 min. The “effect on locomotor activity, in words” value with DA autoreceptors is “lower doses significantly suppressing and higher dosess significantly stimulating the rat locomotor activity”. In test [3], the “Dopa-accumulation; ED50, Limbic (taken from Hacksell et al., J. Med. Chem. 22, 1469 (1979))” value was 0.19 μmol/kg s.c and the “Dopa-accumulation; ED50, Striatum (taken from Hacksell et al., J. Med. Chem. 22, 1469 (1979))” value is recorded as 0.22 μmol/kg s.c. Also, the “effects demonstrated in man” value in the test on autoreceptor was “"paradoxical" antipsychotic and antidyskinetic effects”.
For `CCCN(CCC)C1CCc2c(O)cccc2C1` (stereo not shown) [Compound 5-OHDPAT, 5-hydroxy-2-(di-n-propylamino)tetralin], the Motor activity in test [2] (0.75 mg/kg s.c.) was 620 ± 20 counts 0-60 min. Also, the “motor response / postsynaptic DA-receptor stimulatory effects” value in test [2] was “strong central postsynaptic DA-receptor stimulatory effects”. In addition, in test [2] (setting [4]), the “antagonism of the reserpine-induced syndrome / behaviour elicited” value is “pronounced stereotyped and hyperactive behaviour”; the “postsynaptic DA-receptor stimulation” value is reported as “efficient postsynaptic DA-receptor stimulants”. Also, the Locomotor activity in the test with DA autoreceptors (0.0125 mg/kg s.c.) worked out at 84 ± 11 counts 0.30 min. Besides, in the test on DA autoreceptors (0.05 mg/kg s.c.), the Locomotor activity was 380 ± 24 counts 0.30 min. Also, the “effect on locomotor activity, in words” value in the test on DA autoreceptors was “lower doses significantly suppressing and higher dosess significantly stimulating the rat locomotor activity”. Moreover, in test [3], the “Dopa-accumulation; ED50, Limbic (taken from Hacksell et al., J. Med. Chem. 22, 1469 (1979))” value was 0.111 μmol/kg s.c and the “Dopa-accumulation; ED50, Striatum (taken from Hacksell et al., J. Med. Chem. 22, 1469 (1979))” value was 0.009 μmol/kg s.c.
